Measurements published in PubChem BioAssay (NCI).
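Grown in 96-well plates, cells were treated for 48 hours with each compound at five concentrations. Insufficient inhibition: endpoint recorded as highest concentration tested. At the TGI there is no net growth.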

How the values were obtained:
Experiment in all cases: NCI anticancer screen, dose series, 48 h
[1] = system: K-562 leukemia
[2] = system: HL-60(TB) leukemia
[3] = system: M14 melanoma
[4] = system: SK-OV-3 ovarian
[5] = system: SNB-19 CNS
[6] = system: SK-MEL-5 melanoma
[7] = system: HOP-92 NSCLC
[8] = system: 786-0 renal

Row | SMILES | TGI [1] [µM] | TGI [2] [µM] | TGI [3] [µM] | TGI [4] [µM] | TGI [5] [µM] | TGI [6] [µM] | TGI [7] [µM] | TGI [8] [µM]
1 | Cc1ccc(SCC(O)=C2C(=O)CCCC2=O)cc1 | > 100 | > 100 | > 100 | > 100 | > 100 | > 100 | > 100 | > 100
2 | O=C(O)Cc1cc(=O)[nH]c2c1C(=O)CCC2 | > 100 | > 100 | > 100 | > 100 | > 100 | > 100 | > 100 | > 100
3 | COc1cc2c3c(c1OC)Oc1ccc(cc1)CC1c4c(cc(OC)c(OC)c4Oc4ccc(cc4)CC3N(C)CC2)CCN1C (centres undefined) | 35.5 | 34.1 | 33.2 | 84.1 | > 100 | 31.7 | > 100 | 53
4 | CC(=O)OCC(OC(C)=O)C(OC(C)=O)C(OC(C)=O)C(=O)CNn1c(-c2ccccc2Cl)nc2ccc(Br)cc2c1=O (centres undefined) | > 100 | 90.1 | > 100 | > 100 | > 100 | > 100 |  | > 100
5 | CCCCCCCCCCCCCCC(O)C1CCC(C(O)CCC(O)CCCCCC(O)CC2=CC(C)OC2=O)O1 (centres undefined) | 3.68 | 1.56 | 22.8 | 15 | 11.1 | 2.3 | 11.7 | 8.87
6 | Cc1cc(Cl)ccc1NC(=O)CCCC(=O)C(C(=O)c1ccccc1)c1ccccc1 (centres undefined) | > 100 | > 100 | > 100 | > 100 |  |  | > 100 | > 100
7 | C[C@@H](c1ccccc1)N(CC#N)C1CCC[C@H]1O (some centres undefined) | > 100 | > 100 | > 100 | > 100 | > 100 | > 100 | > 100 | > 100
8 | O=C(O)c1oc2cccc3c2c1CCC3 | > 100 | > 100 | > 100 | > 100 | > 100 | > 100 | > 100 | > 100
9 | O=C1C2=C(c3ccccc31)C(c1ccc(Cl)cc1)NC(=S)N2 (centres undefined) | 40.2 | 37.8 | 54.6 | > 100 | 96 | > 100 | 41.2 | 34
10 | c1ccc(COc2cccc3cccnc23)cc1 | > 100 | 57.5 | > 100 | > 100 | > 100 | > 100 | > 100 | > 100
11 | O=C1C2=C(c3ccccc31)C(c1ccc(F)cc1)N1C(=O)CCSC1=N2 (centres undefined) | > 100 | > 100 | > 100 | > 100 | > 100 | > 100 | 97.7 | > 100
12 | COC(=O)/C(=N/O)C(C(=O)OC)C(=O)C(=O)Nc1c(Cl)cc(C)cc1S(=O)(=O)O (centres undefined) | > 100 | > 100 | > 100 | > 100 | > 100 | > 100 | > 100 | > 100
13 | N[C@H](C(=O)O)[C@@H](Cl)CC(=O)O | > 100 | > 100 | > 100 | > 100 | > 100 | > 100 | > 100 | > 100
14 | COC(=O)c1nn(C(=N)c2ccc(Cl)cc2)c2c1CCCCC2 | > 100 | > 100 | > 100 | > 100 | > 100 | > 100 | > 100 | > 100
15 | O=C(Nc1ccccc1C(=O)O)C(=O)C(C(=O)c1ccccc1-c1ccccc1)C1OC(=O)c2ccccc21 (centres undefined) | > 100 | 70.6 | 33.4 | 94 | 35.2 | 33.9 |  | 33.3
16 | CCOC(=O)NC(=O)c1cn(C2OC(CO)C(O)C2O)c(=O)[nH]c1=O (centres undefined) | > 100 | > 100 | > 100 | > 100 | > 100 | > 100 |  | > 100
17 | [N-]=[N+]=Nc1c(Br)c(=O)[nH]c(=O)n1COCCO | > 100 | > 100 | > 100 |  | > 100 | > 100 | > 100 | > 100
18 | CN/N=C(\C(=O)Nc1ccc([N+](=O)[O-])cc1[N+](=O)[O-])C1NC(=O)NC1=O (centres undefined) | > 100 | > 100 | > 100 | > 100 | > 100 | > 100 | > 100 | > 100
19 | COc1cc(C(=O)C/C(CCC(=O)Nc2ccc(Cl)cc2Cl)=N/Nc2nnc(C)n2N)ccc1O |  | > 100 | > 100 | > 100 | > 100 | > 100 | > 100 | > 100
20 | Cc1cccc(O)c(=O)c1 |  | 12.1 | > 100 | > 100 | > 100 | > 100 | > 100 | > 100
21 | COC(=O)C1=C(c2cc(OC)c(OC)c(OC)c2)O[C@H](c2ccc3c(c2)OCO3)[C@H]1COC(C)=O | 91.8 | 40.3 | 43.3 | 52.1 |  | 29.8 | 54.4 | 78.4
